Like-named read-outs stand apart in the source and are kept apart here.
What was measured:
[1] = test system: barnyardgrass; assay: Test A pre-/postemergence herbicide test; type: in vivo, Echinochloa crus-galli; settings: for pest or weed control at 1000 g/ha: 1000 g ai/ha; for pest or weed control at 125 g/ha: 125 g ai/ha
Procedure, shortened: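 Both application timings used compounds in a non-phytotoxic solvent plus surfactant. Pre-emergence: soil sprayed directly after seeding into loam/sand. Post-emergence: foliage of 2–10 cm seedlings (1–2 leaves) sprayed. Injury rated ~10 days later, 0–100.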

[2] = test system: blackgrass; assay: Test C pre-/postemergence herbicide test; type: in vivo, Alopecurus myosuroides
Procedure, shortened: (§1)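 Herbicidal effect was judged by eye 13 to 15 days after treatment in the greenhouse, using a 0–100 scale against controls. Chemicals in a non-phytotoxic solvent with surfactant were sprayed onto planted loam/sand soil or onto plants 2 to 18 cm tall in a peat-based growing medium.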

[3] = test system: galium; assay: Test C pre-/postemergence herbicide test; type: in vivo, Galium aparine
Procedure, shortened: as §1

[4] = test system: corn; assay: Test C pre-/postemergence herbicide test; type: in vivo, Zea mays
Procedure, shortened: as §1

[5] = test system: crabgrass, large; assay: Test C pre-/postemergence herbicide test; type: in vivo, Digitaria sanguinalis
Procedure, shortened: as §1

[6] = test system: foxtail, giant; assay: Test C pre-/postemergence herbicide test; type: in vivo, Setaria faberii
Procedure, shortened: as §1

[7] = test system: lambsquarters; assay: Test C pre-/postemergence herbicide test; type: in vivo, Chenopodium album
Procedure, shortened: as §1

[8] = test system: pigweed; assay: Test C pre-/postemergence herbicide test; type: in vivo, Amaranthus retroflexus
Procedure, shortened: as §1

[9] = test system: velvetleaf; assay: Test C pre-/postemergence herbicide test; type: in vivo, Abutilon theophrasti
Procedure, shortened: as §1

[10] = Postemergence, 31 g ai/ha, scale 0 (no effect) to 100 (complete control)
[11] = Postemergence, 62 g ai/ha, scale 0 to 100 (0 no effect, 100 complete control)
[12] = Postemergence, 125 g ai/ha, scale 0 to 100 (0 no effect, 100 complete control)
[13] = Postemergence, 250 g ai/ha, scale 0 to 100 (0 no effect, 100 complete control)
[14] = Preemergence, 62 g ai/ha, scale 0 to 100
[15] = Preemergence, 125 g ai/ha, scale 0 to 100 (0 no effect, 100 complete control)
[16] = Preemergence, 31 g ai/ha, scale 0 to 100 (0 no effect, 100 complete control)
[17] = Preemergence, 250 g ai/ha, scale 0 to 100 (0 no effect, 100 complete control)
[18] = Postemergence, 31 g ai/ha, scale 0 to 100 (0 no effect, 100 complete control)
[19] = Postemergence, 62 g ai/ha, scale 0 (no effect) to 100 (complete control)
[20] = Preemergence, 31 g ai/ha, scale 0 to 100, 0 is no effect and 100 is complete control
[21] = Preemergence, 62 g ai/ha, scale 0 to 100 (0 no effect, 100 complete control)

In the case of O=C1NCC(c2ccc(F)c(F)c2)C1C(=O)Nc1cccc(F)c1F (stereo not shown) [Compound 17, N-(2,3-difluorophenyl)-4-(3,4-difluorophenyl)-2-oxo-3-pyrrolidinecarboxamide], the pest or weed control at 1000 g/ha ([1]; Echinochloa crus-galli, post-emergence, 240 h, Postemergence, 0 to 100 scale (0 no effect, 100 complete control), read-out: Plant response rating, Barnyardgrass) is reported as 90%, the pest or weed control at 1000 g/ha ([1]; Echinochloa crus-galli, pre-emergence, 240 h, Preemergence, visual rating on 0 to 100 scale (0 no effect, 100 complete control), approx. 10 days, read-out: Plant response rating, Barnyardgrass) is reported as 90% and the “Plant response rating, Blackgrass” value [2, 10] is reported as 0. For the same compound, the “Plant response rating, Blackgrass” value [2, 11] was 0, the “Plant response rating, Blackgrass” value [2, 12] was 0 and the “Plant response rating, Blackgrass” value [2, 13] was 0. For the same compound, the “Plant response rating, Blackgrass” value [2, 14] was 50, the “Plant response rating, Blackgrass” value [2, 15] was 80 and the “Blackgrass plant response rating” value [2, 16] was 5. The “Plant response rating, Blackgrass” value [2, 17] was 95, the “Plant response rating, Galium” value [3, 10] was 0 and the “Plant response rating, Galium” value [3, 11] was 0. For the same compound, the “Plant response rating, Galium” value [3, 12] was 0, the “Plant response rating, Galium” value [3, 13] was 0 and the “Plant response rating, Galium” value [3, 14] was 70. For the same compound, the “Plant response rating, Galium” value [3, 15] was 70, the “Galium plant response rating” value [3, 16] was 0 and the “Plant response rating, Galium” value [3, 17] was 90. The “Plant response rating, Corn” value [4, 10] was 0, the “Plant response rating, Corn” value [4, 11] was 0 and the “Plant response rating, Corn” value [4, 12] was 0. For the same compound, the “Plant response rating, Corn” value [4, 13] was 0, the “Plant response rating, Corn” value [4, 14] was 0 and the “Plant response rating, Corn” value [4, 15] was 30. The “Corn plant response rating” value [4, 16] was 0, the “Plant response rating, Corn” value [4, 17] was 70 and the “Plant response rating, Crabgrass, Large” value [5, 10] was 0. For the same compound, the “Plant response rating, Crabgrass, Large” value [5, 11] was 0, the “Plant response rating, Crabgrass, Large” value [5, 12] was 45 and the “Plant response rating, Crabgrass, Large” value [5, 13] was 70. For the same compound, the “Plant response rating, Crabgrass, Large” value [5, 14] was 98, the “Plant response rating, Crabgrass, Large” value [5, 15] was 100 and the “Crabgrass, Large plant response rating” value [5, 16] was 95. The “Plant response rating, Crabgrass, Large” value [5, 17] was 100, the “Plant response rating, Foxtail, Giant” value [6, 10] was 0 and the “Plant response rating, Foxtail, Giant” value [6, 11] was 0. For the same compound, the “Plant response rating, Foxtail, Giant” value [6, 12] was 0, the “Plant response rating, Foxtail, Giant” value [6, 13] was 10 and the “Plant response rating, Foxtail, Giant” value [6, 14] was 95. The “Plant response rating, Foxtail, Giant” value [6, 15] was 100, the “Foxtail, Giant plant response rating” value [6, 16] was 90 and the “Plant response rating, Foxtail, Giant” value [6, 17] was 100. For the same compound, the “Plant response rating, Lambsquarters” value [7, 10] was 0, the “Plant response rating, Lambsquarters” value [7, 11] was 0 and the “Plant response rating, Lambsquarters” value [7, 12] was 0. For the same compound, the “Plant response rating, Lambsquarters” value [7, 13] was 0, the “Plant response rating, Lambsquarters” value [7, 14] was 60 and the “Plant response rating, Lambsquarters” value [7, 15] was 60. For the same compound, the “Plant response rating, Pigweed” value [8, 10] was 0, the “Plant response rating, Pigweed” value [8, 11] was 0 and the “Plant response rating, Pigweed” value [8, 12] was 0. For the same compound, the “Plant response rating, Pigweed” value [8, 13] was 0, the “Plant response rating, Pigweed” value [8, 14] was 0 and the “Plant response rating, Pigweed” value [8, 15] was 50. For the same compound, the “Plant response rating, Velvetleaf” value [9, 10] was 0, the “Plant response rating, Velvetleaf” value [9, 11] was 0 and the “Plant response rating, Velvetleaf” value [9, 12] was 0. The “Plant response rating, Velvetleaf” value [9, 13] was 0, the “Plant response rating, Velvetleaf” value [9, 14] was 0 and the “Plant response rating, Velvetleaf” value [9, 15] was 0.
O=C1NC[C@H](c2cccc(C(F)(F)F)c2)[C@H]1C(=O)Nc1ccccc1F [Compound 204, (3R,4S)—N-(2-fluorophenyl)-2-oxo-4-[3-(trifluoromethyl)phenyl]-3-pyrrolidinecarboxamide] showed a pest or weed control at 125 g/ha ([1]; Echinochloa crus-galli, post-emergence, 240 h, Postemergence, 0 to 100 scale, 0 is no effect, 100 is complete control, read-out: Plant response rating, Barnyardgrass) of 90%, a pest or weed control at 125 g/ha ([1]; Echinochloa crus-galli, pre-emergence, 240 h, visual rating, 0 to 100 scale, 0 no effect, 100 complete control, approximately 10 days, read-out: Plant response rating, Barnyardgrass) of 90% and a pest or weed control at 500 g/ha ([1]; Echinochloa crus-galli, pre-emergence, 240 h, preemergence, 500 g ai/ha, 0 to 100 scale, 0 is no effect and 100 is complete control, read-out: Plant response rating, Barnyardgrass) of 90%. The “Barnyardgrass plant response rating (0 to 100 scale, 0 is no effect, 100 is complete control)” value ([1]; Postemergence, 500 g ai/ha) was 90, the “Plant response rating, Blackgrass” value [2, 18] was 0 and the “Plant response rating, Blackgrass” value [2, 19] was 0. The “Plant response rating, Blackgrass” value [2, 12] was 0, the “Plant response rating, Blackgrass” value [2, 13] was 50 and the “Blackgrass plant response rating” value [2, 20] was 90. The “Plant response rating, Blackgrass” value [2, 14] was 90, the “Plant response rating, Blackgrass” value [2, 15] was 90 and the “Plant response rating (scale of 0 to 100), Blackgrass” value ([2]; Preemergence, 250 g ai/ha) was 90. The “Plant response rating, Galium” value [3, 18] was 10, the “Plant response rating, Galium” value [3, 19] was 45 and the “Plant response rating, Galium” value [3, 12] was 60. For the same compound, the “Plant response rating, Galium” value [3, 13] was 60, the “Galium plant response rating” value [3, 21] was 90 and the “Plant response rating, Galium” value [3, 15] was 90. For the same compound, the “Plant response rating (scale of 0 to 100), Galium” value ([3]; Preemergence, 250 g ai/ha) was 90, the “Plant response rating, Corn” value [4, 18] was 0 and the “Plant response rating, Corn” value [4, 19] was 0. The “Plant response rating, Corn” value [4, 12] was 0, the “Plant response rating, Corn” value [4, 13] was 40 and the “Corn plant response rating” value [4, 20] was 45. For the same compound, the “Corn plant response rating” value [4, 21] was 25, the “Plant response rating, Corn” value [4, 15] was 55 and the “Plant response rating (scale of 0 to 100), Corn” value ([4]; Preemergence, 250 g ai/ha) was 75. The “Plant response rating, Crabgrass, Large” value [5, 18] was 0, the “Plant response rating, Crabgrass, Large” value [5, 19] was 50 and the “Plant response rating, Crabgrass, Large” value [5, 12] was 70. The “Plant response rating, Crabgrass, Large” value [5, 13] was 80, the “Crabgrass, Large plant response rating” value [5, 20] was 90 and the “Crabgrass, Large plant response rating” value [5, 21] was 90. For the same compound, the “Plant response rating, Crabgrass, Large” value [5, 15] was 100, the “Plant response rating (scale of 0 to 100), Crabgrass, Large” value ([5]; Preemergence, 250 g ai/ha) was 95 and the “Plant response rating, Foxtail, Giant” value [6, 18] was 0. For the same compound, the “Plant response rating, Foxtail, Giant” value [6, 19] was 10, the “Plant response rating, Foxtail, Giant” value [6, 12] was 90 and the “Plant response rating, Foxtail, Giant” value [6, 13] was 90. For the same compound, the “Foxtail, Giant plant response rating” value [6, 20] was 90, the “Foxtail, Giant plant response rating” value [6, 21] was 90 and the “Plant response rating, Foxtail, Giant” value [6, 15] was 95. For the same compound, the “Plant response rating (scale of 0 to 100), Foxtail, Giant” value ([6]; Preemergence, 250 g ai/ha) was 95, the “Plant response rating, Lambsquarters” value [7, 18] was 35 and the “Plant response rating, Lambsquarters” value [7, 19] was 65. The “Plant response rating, Lambsquarters” value [7, 12] was 75, the “Plant response rating, Lambsquarters” value [7, 13] was 30 and the “Lambsquarters plant response rating” value [7, 20] was 100. The “Lambsquarters plant response rating” value [7, 21] was 100, the “Plant response rating, Lambsquarters” value [7, 15] was 75 and the “Plant response rating (scale of 0 to 100), Lambsquarters” value ([7]; Preemergence, 250 g ai/ha) was 100. For the same compound, the “Plant response rating, Pigweed” value [8, 18] was 20, the “Plant response rating, Pigweed” value [8, 19] was 10 and the “Plant response rating, Pigweed” value [8, 12] was 10. For the same compound, the “Plant response rating, Pigweed” value [8, 13] was 10, the “Pigweed plant response rating” value [8, 20] was 0 and the “Pigweed plant response rating” value [8, 21] was 0. For the same compound, the “Plant response rating, Pigweed” value [8, 15] was 0, the “Plant response rating (scale of 0 to 100), Pigweed” value ([8]; Preemergence, 250 g ai/ha) was 75 and the “Plant response rating, Velvetleaf” value [9, 18] was 0. For the same compound, the “Plant response rating, Velvetleaf” value [9, 19] was 0, the “Plant response rating, Velvetleaf” value [9, 12] was 0 and the “Plant response rating, Velvetleaf” value [9, 13] was 10. For the same compound, the “Velvetleaf plant response rating” value [9, 20] was 0, the “Velvetleaf plant response rating” value [9, 21] was 0 and the “Plant response rating, Velvetleaf” value [9, 15] was 0. The “Plant response rating (scale of 0 to 100), Velvetleaf” value ([9]; Preemergence, 250 g ai/ha) was 30.
